{"source": "patent US11154530B2", "about": "“Pharmaceutical composition for treating liver cancer, comprising tetraarsenic hexoxide crystalline polymorph” (CHEMAS CO., LTD., priority 2016, dated 2021)", "key": {"[1]": {"assay": "In vivo efficacy test in mice transplanted with H22 cells", "settings": "ICR mice with H22 cells", "protocol": "(§1) Human liver cancer cell line H22 cells (purchased from the Shanghai Cell Bank of Chinese Academy of Sciences) were incubated in RPMI-1640 medium supplemented with 10% FBS, 100 U/ml penicillin, and 100 μg/ml streptomycin in an incubator under conditions of 37° C., 5% CO2, and 95% air. The medium was exchanged every three days.\n(§2) The mice were allowed free access to food and water, and were bred in a 12-hr light/12-hr dark cycle.\n(§3) Out of the 50 mice, 10 mice were classified as the normal group, and the remaining 40 animals were subcutaneously inoculated with H22 cells at 1×10^7 cells per mouse, and bred for 7 days. […] 5-Fluorouracil (5-FU), which is used as an anticancer drug, was treated for a positive control group.\n(§4) After the administration of the drug for each group, cancer sizes were measured daily using a Vernier caliper, and cancer volumes were calculated using the equation V=0.5×ab^2 (a is the longest diameter of cancer and b is the shortest diameter of cancer). In addition, the inhibition of cancer volume according to the number of days of administration was calculated by the following equation. Percentage of inhibition of cancer growth=(1−(sample treatment group/cancer model group))×100"}, "[2]": {"test_system": "human liver cancer cell line H22 cells", "assay": "In vivo efficacy test in mice transplanted with H22 cells", "settings": "from cancer volume vs cancer model group", "protocol": "as §1, §2, §3, §4"}, "[3]": {"test_system": "human liver cancer cell line SMMC-7721 cells", "assay": "In vivo efficacy test in mice transplanted with SMMC-7721 cells", "settings": "for Cancer weight: babl/c-nu mice with SMMC-7721 cells; for Percentage (%) of inhibition of cancer growth: from cancer weight vs cancer model group", "protocol": "as §1, with “SMMC-7721” for “H22”, “50” for “100”\nas §2\nThe twenty five mice were subcutaneously inoculated into the neck site with SMMC-7721 cells at 2×10^7 cells per mouse, and bred for 7 days. […] 5-Fluorouracil (5-FU), which is used as an anticancer drug, was treated for a positive control group.\nCancer tissues were isolated from the mice after seven days of administration of the drug for each group, and visually observed. Cancer weights were measured. In addition, the inhibition of cancer growth was calculated on the basis of the measured weights of the cancer tissues by using the following equation. Percentage of inhibition of cancer growth=(1−(sample treatment group/cancer model group))×100"}, "[4]": {"test_system": "human liver cancer cells SMMC-7721", "assay": "MTT cell proliferation assay, SMMC-7721 cells", "assay_type": "cell-based", "protocol": "(§5) Fetal bovine serum (FBS) and cell culture medium were prepared (Hyclone), and dimethyl sulfoxide (DMSO) and 3-(4,5-dimethyl-thiazol-2yl)-2,5-diphenyltetrazolium bromide (MTT, Amresco LLC, USC) were prepared.\n(§6) As human cancer cell lines, human liver cancer cells SMMC-7721 and HCCLM3 were obtained from the Shanghai Cell Bank of Chinese Academy of Sciences. The SMMC-7721 cells were incubated in RPMI-1640 medium supplemented with 10% FBS, 50 U/ml penicillin, and 50 μg/ml streptomycin and the HCCLM3 cells were incubated in Dulbecco's modified Eagle's medium (DMEM) supplemented with 10% FBS, 100 U/ml penicillin, and 100 μg/ml streptomycin in a humidified incubator with 5% CO2 and 95% air. […]\n(§7) The effects of Example 1 and Comparative Examples 1 to 3 on cell proliferation were assessed using MTT assay. […] All the crystals were completely dissolved by standing at room temperature for 15 minutes, and the absorbance was measured using a micro-plate reader at a wavelength of 570 nm (A570nm).\n(§8) The absorbance value of the control group treated without the sample was calculated as 100, and the absorbance value of the treatment group treated with the sample, compared with that of the control group, was calibrated, and the percentage of inhibition of cell proliferation was calculated according to the following equation. […]\n(§9) All data were expressed as mean±standard error of the mean (mean±SEM). […]"}, "[5]": {"test_system": "human liver cancer cells HCCLM3", "assay": "MTT cell proliferation assay, HCCLM3 cells", "assay_type": "cell-based", "protocol": "as §5, §6, §7, §8, §9"}, "[6]": {"settings": "Positive control group, 20 mg/kg oral daily, 5 days"}, "[7]": {"settings": "Positive control group, 20 mg/kg oral daily, 7 days"}, "[8]": {"settings": "Positive control group, 20 mg/kg oral daily, 9 days"}, "[9]": {"settings": "Positive control group, 20 mg/kg oral daily, 11 days"}, "[10]": {"settings": "Positive control group, 20 mg/kg oral daily for 7 days"}, "[11]": {"settings": "Test Group 1, 4.5 mg/kg oral daily, 5 days"}, "[12]": {"settings": "Test Group 1, 4.5 mg/kg oral daily, 7 days"}, "[13]": {"settings": "Test Group 1, 4.5 mg/kg oral daily, 9 days"}, "[14]": {"settings": "Test Group 1, 4.5 mg/kg oral daily, 11 days"}, "[15]": {"settings": "Test Group 2, 2.25 mg/kg oral daily, 5 days"}, "[16]": {"settings": "Test Group 2, 2.25 mg/kg oral daily, 7 days"}, "[17]": {"settings": "Test Group 2, 2.25 mg/kg oral daily, 9 days"}, "[18]": {"settings": "Test Group 2, 2.25 mg/kg oral daily, 11 days"}, "[19]": {"settings": "Test Group 1, 4.5 mg/kg oral daily for 7 days"}, "[20]": {"settings": "Test Group 2, 2.25 mg/kg oral daily for 7 days"}, "[21]": {"settings": "Test Group 3, 1.125 mg/kg oral daily for 7 days"}}}
{"molecule": "O=c1[nH]cc(F)c(=O)[nH]1", "note": "[5-Fluorouracil, reference compound]", "values": [{"measurement": "Cancer volume according to number of days of administration", "setting": "[1]; [6]", "result": 165.62, "unit": "mm^3"}, {"measurement": "Cancer volume according to number of days of administration", "setting": "[1]; [7]", "result": 212.78, "unit": "mm^3"}, {"measurement": "Cancer volume according to number of days of administration", "setting": "[1]; [8]", "result": 318.07, "unit": "mm^3"}, {"measurement": "Cancer volume according to number of days of administration", "setting": "[1]; [9]", "result": 661.97, "unit": "mm^3"}, {"measurement": "Percentage (%) of inhibition of cancer growth", "setting": "[2]; [6]", "result": 26.16, "unit": "%"}, {"measurement": "Percentage (%) of inhibition of cancer growth", "setting": "[2]; [7]", "result": 46.73, "unit": "%"}, {"measurement": "Percentage (%) of inhibition of cancer growth", "setting": "[2]; [8]", "result": 52.15, "unit": "%"}, {"measurement": "Percentage (%) of inhibition of cancer growth", "setting": "[2]; [9]", "result": 63.48, "unit": "%"}, {"measurement": "Cancer weight", "setting": "[3]; [10]", "result": "0.72 ± 0.27", "unit": "g"}, {"measurement": "Percentage (%) of inhibition of cancer growth", "setting": "[3]; [10]", "result": 32.5, "unit": "%"}]}
{"molecule": "tetraarsenic hexoxide [Example 1]", "values": [{"measurement": "Percentage of inhibition of SMMC-7721 cell proliferation compared with Comparative Example 1", "setting": "[4]; incubation for 48 hours and 72 hours, 0.625-80 μM, FIGS. 2A-B", "result": "higher"}, {"measurement": "Percentage of inhibition of SMMC-7721 cell proliferation compared with Comparative Example 2 or 3", "setting": "[4]; mixtures of Example 1 and Comparative Example 1 at 4:1 or 1:1, FIGS. 2A-B", "result": "higher"}, {"measurement": "Cancer volume according to number of days of administration", "setting": "[1]; [11]", "result": 168.09, "unit": "mm^3"}, {"measurement": "Cancer volume according to number of days of administration", "setting": "[1]; [12]", "result": 238.22, "unit": "mm^3"}, {"measurement": "Cancer volume according to number of days of administration", "setting": "[1]; [13]", "result": 388.85, "unit": "mm^3"}, {"measurement": "Cancer volume according to number of days of administration", "setting": "[1]; [14]", "result": 880.55, "unit": "mm^3"}, {"measurement": "Cancer volume according to number of days of administration", "setting": "[1]; [15]", "result": 216.75, "unit": "mm^3"}, {"measurement": "Cancer volume according to number of days of administration", "setting": "[1]; [16]", "result": 302.66, "unit": "mm^3"}, {"measurement": "Cancer volume according to number of days of administration", "setting": "[1]; [17]", "result": 388.56, "unit": "mm^3"}, {"measurement": "Cancer volume according to number of days of administration", "setting": "[1]; [18]", "result": 987.61, "unit": "mm^3"}, {"measurement": "Percentage (%) of inhibition of cancer growth", "setting": "[2]; [11]", "result": 25.06, "unit": "%"}, {"measurement": "Percentage (%) of inhibition of cancer growth", "setting": "[2]; [12]", "result": 40.36, "unit": "%"}, {"measurement": "Percentage (%) of inhibition of cancer growth", "setting": "[2]; [13]", "result": 41.50, "unit": "%"}, {"measurement": "Percentage (%) of inhibition of cancer growth", "setting": "[2]; [14]", "result": 51.42, "unit": "%"}, {"measurement": "Percentage (%) of inhibition of cancer growth", "setting": "[2]; [15]", "result": 3.36, "unit": "%"}, {"measurement": "Percentage (%) of inhibition of cancer growth", "setting": "[2]; [16]", "result": 24.23, "unit": "%"}, {"measurement": "Percentage (%) of inhibition of cancer growth", "setting": "[2]; [17]", "result": 41.54, "unit": "%"}, {"measurement": "Percentage (%) of inhibition of cancer growth", "setting": "[2]; [18]", "result": 45.52, "unit": "%"}, {"measurement": "Percentage of inhibition of HCCLM3 cell proliferation compared with Comparative Example 1", "setting": "[5]; incubation for 48 hours and 72 hours, 0.625-80 μM, FIGS. 3A-B", "result": "higher"}, {"measurement": "Percentage of inhibition of HCCLM3 cell proliferation compared with Comparative Example 2 or 3", "setting": "[5]; mixtures of Example 1 and Comparative Example 1 at 4:1 or 1:1, FIGS. 3A-B", "result": "higher"}, {"measurement": "Cancer weight", "setting": "[3]; [19]", "result": "0.65 ± 0.17", "unit": "g"}, {"measurement": "Percentage (%) of inhibition of cancer growth", "setting": "[3]; [19]", "result": 39.7, "unit": "%"}, {"measurement": "Cancer weight", "setting": "[3]; [20]", "result": "0.70 ± 0.10", "unit": "g"}, {"measurement": "Percentage (%) of inhibition of cancer growth", "setting": "[3]; [20]", "result": 34.3, "unit": "%"}, {"measurement": "Cancer weight", "setting": "[3]; [21]", "result": "0.77 ± 0.12", "unit": "g"}, {"measurement": "Percentage (%) of inhibition of cancer growth", "setting": "[3]; [21]", "result": 28.0, "unit": "%"}, {"measurement": "Tumor tissue sizes (visual observation)", "setting": "[3]; isolated cancer tissues after 7 days of oral administration, FIG. 6", "result": "reduced"}]}
